{
  "source": "patent US12559461B2",
  "about": "“Antibiotic adjuvant compounds” (UNIVERSITY OF NOTRE DAME DU LAC, priority 2020, dated 2026)",
  "key": {"[1]": {"test_system": "A. baumannii isolates (23 strains)", "experiment": "Minimum inhibitory concentration against AB isolates", "format": "cell-based, Acinetobacter baumannii", "conditions": "CLR alone", "protocol": "Broth microdilution method for MIC determination. Day cultures (6 h) of each bacterial strain in cation adjusted Mueller Hinton II broth (CAMHB, Fisher Scientific U.S.) were subcultured to 5×10^5 CFU/mL in CAMHB. Aliquots (1 mL) were placed in culture tubes and compound was added from 10 mM stock samples in DMSO, such that compound concentration equaled highest concentration tested (200 μM). Samples were then aliquoted (200 μL) into the first wells of a 96-well plate, with all remaining wells being filled with 100 μL of initial bacterial subculture. Row one wells were mixed five times, before 100 μL was transferred to row two. Row two was then mixed five times, and 100 μL was transferred to row three. This process was repeated until the final row had been mixed; this served to serially dilute the compound. Plates were then covered with GLAD Press n'Seal and incubated under stationary conditions at 37° C. for 16 h. MIC values were then recorded as the lowest concentration at which no bacterial growth was observed."}, "AB5075 [2]": {"test_system": "AB5075", "experiment": "Broth microdilution clarithromycin (CLR) potentiation and dose-response of adjuvant", "format": "cell-based, Acinetobacter baumannii", "conditions": "CLR alone, no adjuvant", "how_it_was_run": "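A. baumannii AB5075 at 5×10^5 CFU/mL in CAMHB with fixed adjuvant (DMSO ≤0.3%) and two-fold serially diluted clarithromycin or colistin, stationary 16 h at 37° C. MIC = lowest concentration without visible growth; fold reduction versus antibiotic alone. Dose-response used adjuvant at 0–30 μM.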"}, "AB5075 [3]": {"test_system": "AB5075", "conditions": "CLR alone, previously reported; cited from earlier work"}, "AB5075 [4]": {"test_system": "AB5075", "experiment": "Evolution of clarithromycin resistance by serial passage", "format": "cell-based, Acinetobacter baumannii", "protocol": "A. baumannii 5075 was grown in CAMHB overnight then subcultured (5×10^5 CFU/mL) in 6 mL of fresh CAMHB. Adjuvant was added into this 6-mL subculture at either 10 or 30 μM concentrations. […] This was serially repeated for a period of nine days."}},
  "note": "Read-outs that look alike come from different tables or passages of the source.",
  "data": [
    {"smiles": "CC[C@H]1OC(=O)[C@H](C)[C@@H](O[C@H]2C[C@@](C)(OC)[C@@H](O)[C@H](C)O2)[C@H](C)[C@@H](O[C@@H]2O[C@H](C)C[C@H](N(C)C)[C@H]2O)[C@](C)(OC)C[C@@H](C)C(=O)[C@H](C)[C@@H](O)[C@]1(C)O", "note": "[CLR, clarithromycin, reference compound]", "values": [
      {"measurement": "CLR MIC", "setting": "[1]; A. baumannii strain 3560", "value": 32, "unit": "µg/mL"},
      {"measurement": "CLR MIC", "setting": "[1]; A. baumannii strain 3785", "value": 64, "unit": "µg/mL"},
      {"measurement": "CLR MIC", "setting": "[1]; A. baumannii strain 3806", "value": 16, "unit": "µg/mL"},
      {"measurement": "CLR MIC", "setting": "[1]; A. baumannii strain 3927", "value": 32, "unit": "µg/mL"},
      {"measurement": "CLR MIC", "setting": "[1]; A. baumannii strain 4025", "value": 64, "unit": "µg/mL"},
      {"measurement": "CLR MIC", "setting": "[1]; A. baumannii strain 4026", "value": 64, "unit": "µg/mL"},
      {"measurement": "CLR MIC", "setting": "[1]; A. baumannii strain 4027", "value": 64, "unit": "µg/mL"},
      {"measurement": "CLR MIC", "setting": "[1]; A. baumannii strain 4052", "value": 32, "unit": "µg/mL"},
      {"measurement": "CLR MIC", "setting": "[1]; A. baumannii strain 4269", "value": 32, "unit": "µg/mL"},
      {"measurement": "CLR MIC", "setting": "[1]; A. baumannii strain 4448", "value": 32, "unit": "µg/mL"},
      {"measurement": "CLR MIC", "setting": "[1]; A. baumannii strain 4456", "value": 32, "unit": "µg/mL"},
      {"measurement": "CLR MIC", "setting": "[1]; A. baumannii strain 4490", "value": 32, "unit": "µg/mL"},
      {"measurement": "CLR MIC", "setting": "[1]; A. baumannii strain 4498", "value": 64, "unit": "µg/mL"},
      {"measurement": "CLR MIC", "setting": "[1]; A. baumannii strain 4795", "value": 32, "unit": "µg/mL"},
      {"measurement": "CLR MIC", "setting": "[1]; A. baumannii strain 4857", "value": 64, "unit": "µg/mL"},
      {"measurement": "CLR MIC", "setting": "[1]; A. baumannii strain 4878", "value": 32, "unit": "µg/mL"},
      {"measurement": "CLR MIC", "setting": "[1]; A. baumannii strain 4957", "value": 32, "unit": "µg/mL"},
      {"measurement": "CLR MIC", "setting": "[1]; A. baumannii strain 4991", "value": 32, "unit": "µg/mL"},
      {"measurement": "CLR MIC", "setting": "[1]; A. baumannii strain 5001", "value": 32, "unit": "µg/mL"},
      {"measurement": "CLR MIC", "setting": "[1]; A. baumannii strain 5197", "value": 64, "unit": "µg/mL"},
      {"measurement": "CLR MIC", "setting": "[1]; A. baumannii strain 5256", "value": 32, "unit": "µg/mL"},
      {"measurement": "CLR MIC", "setting": "[1]; A. baumannii strain 5711", "value": 64, "unit": "µg/mL"},
      {"measurement": "CLR MIC", "setting": "[1]; A. baumannii strain 8967", "value": 16, "unit": "µg/mL"},
      {"measurement": "CLR MIC", "setting": "AB5075 [2]", "value": 32, "unit": "µg/mL"},
      {"measurement": "CLR MIC", "setting": "AB5075 [3]", "value": 32, "unit": "µg/mL"},
      {"measurement": "CLR MIC", "setting": "AB5075 [4]; CLR-alone exposure of AB5075, day 0", "value": 32, "unit": "µg/mL"},
      {"measurement": "CLR MIC", "setting": "AB5075 [4]; CLR-alone exposure of AB5075, day 4", "value": 128, "unit": "µg/mL"},
      {"measurement": "CLR MIC", "setting": "AB5075 [4]; CLR-alone exposure of AB5075, day 6", "value": 512, "unit": "µg/mL"},
      {"measurement": "CLR MIC", "setting": "AB5075 [4]; CLR-resistant AB5075 mutant from CLR-alone passaging, no adjuvant", "value": 512, "unit": "µg/mL"},
      {"measurement": "CLR MIC", "setting": "AB5075 [4]; passaging with CLR and 30 μM adjuvant 1, day 2 and day 9, without adjuvant", "value": 32, "unit": "µg/mL"},
      {"measurement": "CLR MIC", "setting": "AB5075 [4]; serial passage with CLR + adjuvant 1 (30 μM), day 2, compound 1 tested at 0 μM", "value": 16, "unit": "µg/mL"},
      {"measurement": "CLR MIC", "setting": "AB5075 [4]; serial passage with CLR + adjuvant 1 (30 μM), day 4, compound 1 tested at 0 μM", "value": 32, "unit": "µg/mL"},
      {"measurement": "CLR MIC", "setting": "AB5075 [4]; serial passage with CLR + adjuvant 1 (30 μM), day 6, compound 1 tested at 0 μM", "value": 32, "unit": "µg/mL"},
      {"measurement": "CLR MIC", "setting": "AB5075 [4]; serial passage with CLR + adjuvant 1 (30 μM), day 8, compound 1 tested at 0 μM", "value": 32, "unit": "µg/mL"},
      {"measurement": "CLR MIC", "setting": "AB5075 [4]; serial passage with CLR + adjuvant 1 (30 μM), day 10, compound 1 tested at 0 μM", "value": 32, "unit": "µg/mL"}
    ]}
  ]
}
